Data: ChEMBL document CHEMBL1158571, “Antiplasmodial lanostanes from the Ganoderma lucidum mushroom” (J Nat Prod, 2010)
Activity calls are given as the source filed them. The calls are words filed in the database; no cut-off is given here.

Tests used:
Plasmodium falciparum [1] = assay: Antiplasmodial activity against Plasmodium falciparum; type: functional, organism-based
Plasmodium falciparum [2] = assay: Antiplasmodial activity against Plasmodium falciparum at 20 uM; type: functional, organism-based

| Structure (SMILES) | IC50 (Plasmodium falciparum [1]) | Activity (Plasmodium falciparum [2]) |
| --- | --- | --- |
| C/C(=C/C(O)C[C@@H](C)[C@H]1CC[C@@]2(C)C3=CC[C@H]4C(C)(C)C(O)CC[C@]4(C)C3=CC[C@]12C)C(=O)O (stereo partly drawn) | 11 µM | – |
| C/C(=C/CC[C@@H](C)[C@H]1CC[C@@]2(C)C3=C(CC[C@]12C)[C@@]1(C)CCC(=O)C(C)(C)[C@@H]1CC3=O)C(=O)O | – | inactive |
| CC(C)=CCC/C(C)=C/CCC(C(=O)O)c1cc2cc(O)ccc2o1 (stereo not drawn) | – | inactive |
| C/C(=C/CC[C@@H](C)[C@H]1CC[C@@]2(C)C3=CC[C@H]4C(C)(C)C(=O)CC[C@]4(C)C3=CC[C@]12C)C(=O)O [GANODERIC ACID S] | 11 µM | – |
| C/C(=C\CC[C@@H](C)[C@H]1C[C@@H](O)[C@@]2(C)C3=CC[C@H]4C(C)(C)C(=O)CC[C@]4(C)C3=CC[C@]12C)C(=O)O [GANODERIC ACID TR 1] | 18 µM | – |
| C/C(=C/CC[C@@H](C)[C@H]1C[C@H](O)[C@@]2(C)C3=CC[C@H]4C(C)(C)C(=O)CC[C@]4(C)C3=CC[C@]12C)C(=O)O [GANODERIC ACID TR] | 20 µM | – |
| C/C(C=O)=C/CC[C@@H](C)[C@H]1C[C@H](O)[C@@]2(C)C3=CC[C@H]4C(C)(C)C(=O)CC[C@]4(C)C3=CC[C@]12C [GANODERIC ALDEHYDE TR] | 6 µM | – |
| C[C@H](CC[C@@H](O)C(C)(C)O)[C@H]1CC[C@@]2(C)C3=CC[C@H]4C(C)(C)C(=O)CC[C@]4(C)C3=CC[C@]12C [GANODERMANONDIOL] | 13 µM | – |
